Data from patent US20260345605A1, “THERAPEUTIC AGENTS FOR HEART FAILURE” (Ottawa Hospital Research Institute, priority 2023, published 2026).

Tests used:
[1] = test system: DOX-induced cardiomyocyte apoptosis and ventricular dysfunction; settings: cited from earlier work
[2] = test system: CDK4/6; settings: role: inhibitor; cited from earlier work
[3] = test system: streptozotocin (STZ)-induced cardiac dysfunction; settings: animal model of diabetic cardiomyopathy; cited from earlier work
[4] = test system: CDK2; settings: role: inhibitor; cited from earlier work
[5] = test system: phospho-Histone 3 (Ser10); assay: phospho-Histone 3 (pH3 Ser10) staining in NRVM; format: cell-based, neonatal rat
Experimental: A one-way ANOVA test performed to assess statistical significance across treatment groups.
The effect of AZD1152-HQPA on cardiac remodeling was further validated using the phospho-Histone 3 (pH3 Ser10) staining which is the downstream target of aurora kinase B. The NRVMs were plated at a density of 2.5×10^4 cells onto 25 mm diameter collagen coated coverslip. The cells were treated with controls (hCT1, PE), AZD1152-HQPA followed by a combination of PE and AZD1152-HQPA.
Post treatment, the cells were washed, fixed, and were subjected to sequential staining of primary antibodies a Actinin and phospho-Histone 3 (Ser10). The images were acquired using the Zeiss AxioVision SE64 Imaging software and analyzed using the ImageJ software. […] The data are represented as Mean±Standard deviation.

[6] = test system: Aurora B; settings: role: inhibitor; cited from earlier work
[7] = cited from earlier work
[8] = test system: aurora kinase B; assay: pAurkB S727 immunofluorescence and remodeling in NRVM; format: cell-based, neonatal rat
Experimental: Immunofluorescence was performed to validate and assess the effect of aurora B kinase inhibitor on cardiomyocyte remodeling. NRVMs were plated at a density of 2.5×10^4 cells onto 25 mm diameter collagen coated coverslip. Primary cardiomyocytes were incubated with control serum-free medium (Ctrl, SF medium), hCT1 (0.5 nM), PE (100 μM), AZD1152-HQPA (1.5 μM) and assessed for aurora kinase B activation using pAurkB s727 antibody staining. The cells were treated with a combination of PE and AZD1152 HQPA where the cells were stimulated with the drug for 4 hours following the PE treatment for 24 hours.
Post treatment, the cells were washed, fixed, and were subjected to sequential staining of primary antibodies a Actinin and phospho-AurkB (S727). The images were acquired using the Zeiss AxioVision SE64 Imaging software and analyzed using the ImageJ2 software. Immunofluorescence was used to detect α-actinin, pAurkb S727, and nuclei were stained with DAPI.

[9] = test system: iPS cell-derived cardiomyocytes (iCell Cardiomyocytes); assay: Secondary screening: morphometric analysis of iCell Cardiomyocytes; format: cell-based, human; settings: for Mean Cardiomyocyte Length: iCell Cardiomyocyte, UT 213.01323; for length in iCell cardiomyocyte compared to hCT1: iCell cardiomyocytes, 96 well, four concentrations
Text: (§1) A library of 800 small molecule compounds that can stimulate favorable cardiac adaptation in primary neonatal rat ventricular myocytes (NRVM) was screened. To identify the beneficial modifiers of hypertrophy, the Cellomics Arrayscan High Throughput Screening platform was employed to quantify morphometric features such as, for example, length, width, and length to width ratio from images acquired using a 10× lens for DAPI-labeled nuclei and CY3 labeled α actinin stained cardiomyocytes in a 96 well format. The lead compound was also screened in iPSC derived cardiomyocytes as a part of secondary screening as it offers a physiologically relevant human cell-based model.
(§2) A secondary screening was performed with 10 drugs identified from primary screening for their ability to induce physiological remodeling using morphometric analysis and measuring the levels of B-type natriuretic peptide (BNP), as a surrogate indicator of the hypertrophic response using ELISA. The compounds were selected based on the highly enriched targets identified in the drug set enrichment analysis with a high Z score. Cryopreserved iPS cell-derived cardiomyocytes (“iCell Cardiomyocytes”) obtained from Cellular Dynamics International (CDI, Madison, WI) were used as a cell model to perform the screening.
The cells were plated at a density of 2.5×10^4 cells onto 25 mm diameter fibronectin coated glass coverslips in plating media for 48 hours. The media was replaced with Supplemented William's E (SWE) medium (SWE) media supplemented with cocktail containing penicillin-streptomycin, ITS+(insulin, transferrin, selenium complex, BSA, and linoleic acid), GlutaMAX™, and HEPES (Primary Hepatocyte Maintenance Supplements-GIBCO) for 48 hours. The cells were treated with controls (CT1-40 ng/mL, PE-100 uM) and drugs (AZD1152-HQPA, LY283519) at varying concentrations (2.5, 1, 0.5, and 0.25 uM) for 24 hours.
Post treatments, the cells were washed, fixed and treated with primary antibody, secondary antibody similar to the protocol of Example 3. The effect on the morphometric parameters was assessed using Cellomics Arrayscan Vti HCS reader. The Image acquisition was performed using the Zeiss AxioVision SE64 Imaging software and analyzed using the ImageJ2 software.
iCell cardiomyocytes were seeded at a density of 10,000 cells per well in a 96 well plate format. The cells were maintained as in Example 3 and were treated with controls (hCT1, PE) and drugs (AZD1152-HQPA, LY283519) at four different concentrations for 24 hours. The cells were then fixed and stained with a Actinin for cardiomyocytes followed by nuclear staining with DAPI. The plates were analyzed in Cellomics Arrayscan Vti HCS reader to assess morphometric changes following treatment.

[10] = test system: NT Pro-BNP (iCell Cardiomyocyte); assay: NT Pro-BNP ELISA in iCell Cardiomyocyte supernatants; format: cell-based, human; settings: 24 hour; for Mean NT Pro-BNP levels: iCell Cardiomyocyte, UT 2407.521
Experimental: as §2
Pro-NT BNP levels in the culture media were measured following the 24 hour treatment using the Human NT Pro-BNP DuoSet ELISA kit (R&D Systems, Minnesota USA) as per the manufacturer's instruction. […] The plates were read on BMG BioTek Molecular Devices SpectraMax Microplate Reader at 450 nm to obtain the optical density followed by reading at 540 nm for wavelength correction.
Protein levels were identified by plotting a 4 parametric logistic regression curve using the standards provided with the kit.

[11] = test system: cardiomyocytes; assay: Overall observation on remodeling of treated cardiomyocytes; format: cell-based
[12] = test system: neonatal rat ventricular cardiomyocytes; assay: Calcium transients (Fura2-AM) in neonatal rat ventricular cardiomyocytes; format: cell-based
Experimental: Method: Freshly isolated wildtype neonatal rat ventricular cardiomyocytes were plated onto laminin coated glass coverslides, rinsed once and then loaded with 1 μM Fura2-AM (Life Technologies) for 15 min at 37 °C. After washing the cells thrice with Tyrode solution, measuring chambers were transferred onto a Nikon Eclipse TE2000-U microscope equipped with a fluorescence detection system (IonOptix). Ca^2+ transient values were recorded according to the corresponding FRET experiments. F340/F380 values in Fura2-AM experiments were calculated from the ratios of 510 nm emission light measured at 340 and 380 nm excitations.

[13] = test system: cardiomyocytes (NRVMs); assay: Oxygen consumption rate of cardiomyocytes (Seahorse Mito Stress Test); format: cell-based, neonatal rat; settings: 24 h treatment; vs untreated control; FIG. 12
Experimental: OCR detection of cardiomyocytes was conducted with the Seahorse Xfe 24 analyzer (Agilent, Santa Clara, USA). Cardiomyocytes were seeded at a density of 8×10^4/well in a special Seahorse 24-well plate (102342-100, Seahorse). After treating with hCT1, PE and drug for 24 h, the medium was replaced with XF medium containing 10 mM D-(+)-glucose (G7021, Sigma-Aldrich), and 1 mM sodium pyruvate (11360070, Thermo Fisher). The plates were placed in a CO2-free 37 °C incubator for an hour before the measurement. A Seahorse XF Cell Mito Stress Test Kit (103015-100, Seahorse) was used for detection. The basal respiration of the NRVMs was detected, and ATP-linked OCR was analyzed after treatment with 1 μM oligomycin (ATP synthase inhibitor). Then, the uncoupling agent carbonyl [COMPOUND LEFT OUT] 4-(trifluoromethoxy) phenylhydrazone (FCCP) 0.5 μM was injected to detect maximal respiration. Finally, rotenone and antimycin A (AR) were used to abolish mitochondrial respiration by inhibiting complexes I and III, respectively.

[14] = test system: primary neonatal rat ventricular myocytes (NRVM); assay: Primary screen of 800 compounds for cardiomyocyte length (Cellomics Arrayscan morphometry, NRVM); format: cell-based, Sprague Dawley rat; settings: compared to PE-treated cardiomyocyte and a control; 24 hour treatment
Text: as §1
Neonatal rat ventricular myocytes (NRVM) were isolated from 2-day-old Sprague Dawley rat pups. The NRVM were cultured in plating media (Dulbecco Modified Eagle Media, 10% Fetal Bovine Serum, 100 U/mL penicillin, and […] streptomycin) at a density of 10,000 cells per well in a 96 well plate format. One day after isolation, myocytes were switched to serum-free maintenance media for 24 hours. […]
An algorithm was developed in Cellomics Arrayscan Vti HCS reader to measure the morphological characteristics such as cardiomyocyte length, width, length-width ratio, cell area, and the intensity of α-actinin. […]

## COc1cccc2c1C(=O)c1c(O)c3c(c(O)c1C2=O)C[C@@](O)(C(=O)CO)C[C@@H]3O[C@H]1C[C@H](N)[C@H](O)[C@H](C)O1 [DOX, doxorubicin]
[1]; CDK2 activation as mechanism
  DOX-induced effect on heart: cardiomyocyte apoptosis and ventricular dysfunction

## CC(=O)c1c(C)c2cnc(Nc3ccc(N4CCNCC4)cn3)nc2n(C2CCCC2)c1=O [Palbociclib]
[2]
  CDK4/6 inhibition: CDK4/6 inhibitor
[3]
  effect on streptozotocin (STZ)-induced cardiac dysfunction: inhibiting streptozotocin (STZ)-induced cardiac dysfunction by attenuating maladaptive cardiac remodeling

## CC[C@H](CO)Nc1nc(NCc2ccccc2)c2ncn(C(C)C)c2n1 [Roscovitine]
[1]; DOX-associated contractile dysfunction and ventricular remodeling
  cardioprotective effect against DOX: attenuating myocytes from DOX-associated contractile dysfunction and ventricular remodeling
[4]
  CDK2 inhibition: CDK2 inhibitor

## CCN(CCO)CCCOc1ccc2c(Nc3cc(CC(=O)Nc4cccc(F)c4)[nH]n3)ncnc2c1 [AZD1152-HQPA, AZD1152-hydroxyquinazoline pyrazol anilide]
[5]; AZD1152-HQPA alone
  pH3 activity: reduced pH3 activity
[5]; AZD1152-HQPA in combination with PE treatment
  pH3 activity: reduced pH3 activity
[6]
  Aurora B inhibition: strong and selective inhibitor of Aurora B
[7]
  conversion to the active AZD1152-HQPA in plasma: converted rapidly
[8]; AZD1152-HQPA 1.5 μM
  aurora kinase b activation: inhibited aurora kinase b activation
[8]; drug for 4 hours following PE treatment for 24 hours
  pathological effect of PE: able to reverse the pathological effect of PE
[9]; drug 0.25 μm, 24 hours
  Mean Cardiomyocyte Length: 236 µm
[9]; drug 0.5 μm, 24 hours
  Mean Cardiomyocyte Length: 232 µm
[9]; drug 1 μm, 24 hours
  Mean Cardiomyocyte Length: 218 µm
[9]; drug 2.5 μm, 24 hours
  Mean Cardiomyocyte Length: 223 µm
[9]; iCell cardiomyocyte, 1 uM, FIG. 4A
  Eccentric cardiac remodeling: Eccentric cardiac remodeling was observed
[9]; iCell cardiomyocytes on coverslips, 24 hours
  cardiomyocyte length compared with CT1 treated cells: comparable cardiomyocyte length
[9]; 24 hours
  length in iCell cardiomyocyte compared to hCT1: increased length in iCell cardiomyocyte comparable to length induced by hCT1
[10]; drug 0.25 μm
  Mean NT Pro-BNP levels: 2100.945 pg/mL
[10]; drug 0.5 μm
  Mean NT Pro-BNP levels: 1588.366 pg/mL
[10]; drug 1 μm
  Mean NT Pro-BNP levels: 2023.151 pg/mL
[10]; drug 2.5 μm
  Mean NT Pro-BNP levels: 2085.823 pg/mL
[10]; iCell cardiomyocytes
  Pro-NT BNP levels compared to UT and CT1 treated cells: comparable and/or reduced BNP levels
[11]
  cardiomyocyte remodeling: adaptive and compensatory remodeling that resembles a physiologic growth response, adding sarcomeres in series

B1: CT1: Cardiotrophin 1 at 40 ng/mL was used as a positive control (protein, UniProt Q16619 1-201, looked up)
Cardiotrophin-1: MSRREGSLEDPQTDSSVSLLPHLEAKIRQTHSLAHLLTKYAEQLLQEYVQLQGDPFGLPSFSPPRLPVAGLSAPAPSHAGLPVHERLRLDAAALAALPPLLDAVCRRQAELNPRAPRLLRRLEDAARQARALGAAVEALLAALGAANRGPRAEPPAATASAASATGVFPAKVLGLRVCGLYREWLSRTEGDLGQLLPGGSA
[12]; compared to control, FIG. 11
  area under the curve (AUC) of calcium transient: increased AUC compared to control
  calcium transient levels: increase in calcium transient levels compared to control
[12]; inferred from peak calcium transient, AUC and time to peak
  contractility / contractile function: improved contractility by modest increase in peak calcium transient levels and AUC with modest decrease in time to attain those peak levels
[13]
  oxygen consumption rate (OCR): increase the rate of oxygen consumption
[14]
  length of cardiomyocyte: increase in the length of cardiomyocyte
[9]; positive control CT1, 40 ng/mL, 24 hours
  Mean Cardiomyocyte Length: 229 µm
[9]; 24 hours
  length in iCell cardiomyocyte compared to hCT1: positive modulator of cardiomyocyte length
[10]; control CT1
  Mean NT Pro-BNP levels: 2240.774 pg/mL
